Results published in US20080085893A1, “MATRIX METALLOPROTEASE INHIBITORS” (priority 2006, published 2008).
Several values for one entry are separate records, joined by “and”; a condition that tells them apart may be missing. Identical values can stand only once.

Tests used:
Format in all cases: biochemical
[1] = molecular target: T1, human MMP-2 (amino acids 1-660) (Homo sapiens, UniProt P08253); experiment: MMP dose response assay for determining IC50, MMP-2; settings: recombinant enzyme, fluorescent-quench substrate 100 nM; read-out: MMP-2
T1 construct: human MMP-2 (amino acids 1-660); made in house
T1 sequence (P08253 110-660): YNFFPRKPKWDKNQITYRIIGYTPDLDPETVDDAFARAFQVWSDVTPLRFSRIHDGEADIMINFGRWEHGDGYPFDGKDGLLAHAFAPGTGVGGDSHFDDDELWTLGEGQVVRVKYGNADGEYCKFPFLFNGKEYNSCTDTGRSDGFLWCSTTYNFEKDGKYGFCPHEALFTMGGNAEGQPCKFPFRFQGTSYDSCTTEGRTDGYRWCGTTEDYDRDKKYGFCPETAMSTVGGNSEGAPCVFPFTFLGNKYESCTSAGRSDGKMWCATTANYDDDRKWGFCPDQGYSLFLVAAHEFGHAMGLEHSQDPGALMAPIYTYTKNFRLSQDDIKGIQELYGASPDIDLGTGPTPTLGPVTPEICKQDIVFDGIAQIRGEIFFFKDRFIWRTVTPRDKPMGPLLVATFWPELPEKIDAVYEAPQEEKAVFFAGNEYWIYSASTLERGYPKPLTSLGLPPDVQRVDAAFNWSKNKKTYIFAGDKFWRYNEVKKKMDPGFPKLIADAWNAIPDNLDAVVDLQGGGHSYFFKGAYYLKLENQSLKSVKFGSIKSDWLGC
In short: (§1)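 Recombinant enzymes in 50 mM HEPES pH 7.4, 10 mM CaCl2, 0.05% Brij-35, at empirically set levels keeping activity linear, preincubated 1 h at room temperature with compound in triplicate. Fluorescence-quench peptide substrate (Eu/QSY7) added at 100 nM final. Background-subtracted signal expressed as percent of DMSO control for IC50.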

[2] = molecular target: T2, human MMP-9 (amino acids 107-446) (Homo sapiens, UniProt P14780); experiment: MMP dose response assay for determining IC50, MMP-9; settings: recombinant enzyme, fluorescent-quench substrate 100 nM; read-out: MMP-9
T2 construct: human MMP-9 (amino acids 107-446); made in house
In short: as §1

[3] = molecular target: T3, human MMP-1 (amino acids 100-262) (Homo sapiens, UniProt P03956); experiment: MMP dose response assay for determining IC50, MMP-1; settings: recombinant catalytic domain, fluorescent-quench substrate 100 nM
T3 construct: human MMP-1 (amino acids 100-262); made in house
T3 sequence (P03956 100-262): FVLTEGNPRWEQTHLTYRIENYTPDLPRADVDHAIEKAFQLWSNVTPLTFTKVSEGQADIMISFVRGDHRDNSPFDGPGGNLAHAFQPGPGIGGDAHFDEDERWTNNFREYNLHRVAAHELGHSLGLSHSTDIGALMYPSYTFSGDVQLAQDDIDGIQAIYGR
In short: as §1

T2 sequence (P14780 107-446): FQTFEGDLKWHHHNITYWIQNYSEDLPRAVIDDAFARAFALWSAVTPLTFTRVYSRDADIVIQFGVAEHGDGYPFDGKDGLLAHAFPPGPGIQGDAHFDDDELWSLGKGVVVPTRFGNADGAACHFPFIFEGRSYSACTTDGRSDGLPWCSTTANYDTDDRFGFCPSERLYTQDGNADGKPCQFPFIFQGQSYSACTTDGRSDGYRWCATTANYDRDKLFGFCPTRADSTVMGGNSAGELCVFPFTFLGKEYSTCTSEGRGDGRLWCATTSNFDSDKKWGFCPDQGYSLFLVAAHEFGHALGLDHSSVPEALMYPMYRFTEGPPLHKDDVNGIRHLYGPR

Structure (SMILES)	IC50 [1]	IC50 [2]	IC50 [3]
CS(=O)(=O)N(C[C@@H](C(=O)NO)N1CCC(O)(c2ccc(Br)cc2)CC1)c1ccc(Oc2ccc(C(F)(F)F)cc2)cc1 [Example 79, N-Hydroxy (2S)-2-[4-(4-bromophenyl)-4-hydroxypiperidin-1-yl]-3-{N-[4-(4-trifluoromethylphenoxy)phenyl],N-methanesulfonylamino}propionamide]	38.9 nM	37.1 nM	> 10000 nM
CC(C)N(CCN1C(=O)N(C)C(C)(C)C1=O)[C@@H](CN(c1ccc(Oc2ccc(C(F)(F)F)cc2)cc1)S(C)(=O)=O)C(=O)NO [Example 80, N-Hydroxy (2S)-2-{N-(2-propyl),N-[2-(1,5,5-trimethylhydantoin-3-yl)ethyl]amino}-3-{N-[4-(4-trifluoromethylphenoxy)phenyl]-N-methanesulfonylamino}propionamide]	24.3 nM	2.67 nM	> 10000 nM
COC[C@H]1CCCN1[C@@H](CN(c1ccc(Oc2ccc(C(F)(F)F)cc2)cc1)S(C)(=O)=O)C(=O)NO [Example 81, N-Hydroxy (2S)-2-[(2R)-2-methoxymethylpyrrolidin-1-yl]-3-{N-[4-(4-trifluoromethylphenoxy)phenyl],N-methanesulfonylamino}propionamide]	14.2 nM	3.16 nM	> 10000 nM
COC[C@@H]1CCCN1[C@@H](CN(c1ccc(Oc2ccc(C(F)(F)F)cc2)cc1)S(C)(=O)=O)C(=O)NO [Example 82, N-Hydroxy (2S)-2-[(2S)-2-methoxymethylpyrrolidin-1-yl]-3-{N-[4-(4-trifluoromethylphenoxy)phenyl],N-methanesulfonylamino}propionamide]	11.3 nM	7.32 nM	> 10000 nM
CS(=O)(=O)N1CCN([C@@H](CN(c2ccc(Oc3ccc(C(F)(F)F)cc3)cc2)S(C)(=O)=O)C(=O)NO)CC1 [Example 83, N-Hydroxy (2S)-2-(4-methanesulfonylpiperazin-1-yl)-3-{N-[4-(4-trifluoromethylphenoxy)phenyl],N-methanesulfonylamino}propionamide]	6.21 nM and 13.5 nM	1.94 nM and 4.5 nM	> 10000 nM
CC(=O)N1CCN([C@@H](CN(c2ccc(Oc3ccc(C(F)(F)F)cc3)cc2)S(C)(=O)=O)C(=O)NO)CC1 [Example 84, N-Hydroxy (2S)-2-(4-acetylpiperazin-1-yl)-3-{N-[4-(4-trifluoromethylphenoxy)phenyl],N-methanesulfonylamino}propionamide]	8.55 nM	4.81 nM	> 10000 nM
C[C@@H]1CN([C@@H](CN(c2ccc(Oc3ccc(C(F)(F)F)cc3)cc2)S(C)(=O)=O)C(=O)NO)C[C@H](C)O1 [Example 86, N-Hydroxy (2S)-2-(cis-2,6-dimethylmorpholin-4-yl)-3-{N-[4-(4-trifluoromethylphenoxy)phenyl],N-methanesulfonylamino}propionamide]	2.69 nM and 4.57 nM and 9.44 nM and 8.32 nM and 3.04 nM	0.48 nM and 0.86 nM and 2.08 nM and 2.71 nM and 0.35 nM	8040 nM
CS(=O)(=O)N(C[C@@H](C(=O)NO)N1CCNC(=O)C1)c1ccc(Oc2ccc(C(F)(F)F)cc2)cc1 [Example 87, N-Hydroxy (2S)-2-(3-oxopiperazin-1-yl)-3-{N-[4-(4-trifluoromethylphenoxy)phenyl],N-methanesulfonylamino}propionamide]	19.8 nM	7.94 nM	> 10000 nM
